test system: human immortalized podocytes inducibly expressing APOL1 G2; assay: APOL1 G2 podocyte cell rescue assay (Example B4); assay type: cell-based; details: Homo sapiens, differentiated human podocytes, doxycycline-induced APOL1 G2, CellTiter-Glo; geometric mean of at least 2 runs; † = single run
Method in brief: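 Differentiated hTERT-immortalized podocytes (clone D10) with doxycycline-inducible C-terminally HiBiT-tagged APOL1 G2, 6,000 cells/well, treated with doxycycline plus 8-point 3-fold compound series (0.4% DMSO) for 95 h at 37 °C. Viability by CellTiter-Glo luminescence; EC50 as geometric mean of ≥2 runs, each in duplicate.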

Structure (SMILES) | EC50 [nM]
CC(c1ncc(OCCN2CCC3(CC2)C(=O)Nc2ccc(Cl)cc23)cn1)S(C)(=O)=O (stereo not shown) [Compound 1, 5-Chloro-1′-(2-{[2-(1-methanesulfonylethyl)pyrimidin-5-yl]oxy}ethyl)-1,2-dihydrospiro[indole-3,4′-piperidin]-2-one] | 18.8
C[C@]1(O)C[C@@H](N2C(=O)Cc3cc(OCCN4CCC5(CC4)C(=O)Nc4ccc(C(F)F)cc45)cnc32)C1 [Compound 346, 5-(difluoromethyl)-1′-[2-({2-oxo-1-[(cis)-3-hydroxy-3-methylcyclobutyl]-1H,2H,3H-pyrrolo[2,3-b]pyridin-5-yl]oxy)ethyl]-1,2-dihydrospiro[indole-3,4′-piperidin]-2-one] | 38.8
CC(C)[C@]1(O)C[C@@H](N2C(=O)CCc3cc(OCCN4CCC5(CC4)C(=O)Nc4ccc(Cl)cc45)cnc32)C1 [Compound 317, 5-chloro-1′-[2-({7-oxo-8-[(cis)-3-hydroxy-3-(propan-2-yl)cyclobutyl]-5,6,7,8-tetrahydro-1,8-naphthyridin-3-yl}oxy)ethyl]-1,2-dihydrospiro[indole-3,4′-piperidin]-2-one] | 2.92
C[C@]1(O)C[C@@H](n2cnc3cc(OCCN4CCC5(CC4)C(=O)Nc4ccc(C#N)cc45)cc(C(F)(F)F)c32)C1 [Compound 433, 1′-(2-((1-((cis)-3-hydroxy-3-methylcyclobutyl)-7-(trifluoromethyl)-1H-benzo[d]imidazol-5-yl)oxy)ethyl)-2-oxospiro[indoline-3,4′-piperidine]-5-carbonitrile] | 2.13
C[C@]1(O)C[C@@H](n2nnc3cc(OCCN4CCC5(CC4)C(=O)Nc4ccc(C#N)cc45)cc(C(F)(F)F)c32)C1 [Compound 435, 2-oxo-1′-[2-({1-[(cis)-3-hydroxy-3-methylcyclobutyl]-7-(trifluoromethyl)-1H-1,2,3-benzotriazol-5-yl}oxy)ethyl]-1,2-dihydrospiro[indole-3,4′-piperidine]-5-carbonitrile] | 2.94
CC[C@]1(O)C[C@@H](N2C(=O)CCc3cc(OCCN4CCC5(CC4)C(=O)Nc4ccc(Cl)cc45)cnc32)C1 (single isomer, unassigned) [Compound 321, 5-chloro-1′-[2-({7-oxo-8-[(cis)-3-ethyl-3-hydroxycyclobutyl]-5,6,7,8-tetrahydro-1,8-naphthyridin-3-yl}oxy)ethyl]-1,2-dihydrospiro[indole-3,4′-piperidin]-2-one] | 7.65
C[C@]1(O)C[C@@H](n2cnc3cc(OCCN4CCC5(CC4)C(=O)Nc4ccc(Cl)cc45)cc(C(F)(F)F)c32)C1 [Compound 352, 5-chloro-1′-[2-({1-[(cis)-3-hydroxy-3-methylcyclobutyl]-7-(trifluoromethyl)-1H-1,3-benzodiazol-5-yl}oxy)ethyl]-1,2-dihydrospiro[indole-3,4′-piperidin]-2-one] | 1.12
C[C@]1(O)C[C@@H](n2cnc3cc(OCCN4CCC5(CC4)C(=O)Nc4ccc(C(F)F)cc45)cc(C(F)(F)F)c32)C1 [Compound 450, 5-(difluoromethyl)-1′-[2-({1-[(cis)-3-hydroxy-3-methylcyclobutyl]-7-(trifluoromethyl)-1H-1,3-benzodiazol-5-yl}oxy)ethyl]-1,2-dihydrospiro[indole-3,4′-piperidin]-2-one] | 0.846
C[C@]1(O)C[C@@H](n2ccc3cc(OCCN4CCC5(CC4)C(=O)Nc4ccc(C(F)F)cc45)cnc32)C1 [Compound 350, 5-(difluoromethyl)-1′-[2-({1-[(cis)-3-hydroxy-3-methylcyclobutyl]-1H-pyrrolo[2,3-b]pyridin-5-yl}oxy)ethyl]-1,2-dihydrospiro[indole-3,4′-piperidin]-2-one] | 10.3
CC(C)(CO)c1ncc(OCCN2CCC3(CC2)C(=O)Nc2ccc(Cl)cc23)cn1 [Compound 334, 5-chloro-1′-(2-{[2-(1-hydroxy-2-methylpropan-2-yl)pyrimidin-5-yl]oxy}ethyl)-1,2-dihydrospiro[indole-3,4′-piperidin]-2-one] | 9.58
